Entries after “also recorded” stand apart in the source; their conditions may differ. Where two headings read alike, the source gives them in different places. Peptide text beside a SMILES is read from it.
Assays:
[1] = system: HSV-1 F, HSV-1 703, HSV-1 601; format: cell-based, herpes simplex virus; settings: for EC50: Figure 8A, triplicate wells
Varicella zoster virus = test: VZV cytopathic effect; settings: human fibroblasts, pre-treated, infected 1 h, three days, microscopy
HEK293 cells [2] = test: Cell viability, CellTiter-Glo 2.0; format: cell-based; settings: 96 h incubation; Figure 2B, triplicate wells
Procedure: (§1) Vero, MRC-5, and CV-1 cells were cultured in Dulbecco’s Modified Eagle Medium (DMEM; ThermoFisher, Waltham, MA, United States) and Jurkat cells were cultured in RPMI 1640 medium containing 10% fetal calf serum, 100 U/ml penicillin, and 0.1 mg/ml streptomycin (ThermoFisher). HEK293 and NIH/3T3 cells were adapted to growth in CO2-independent medium supplemented with 10% fetal calf serum, 2 mM glutamine, and 1% antibiotic-antimycotic (ThermoFisher) and cultivated in a humidified atmosphere at 37°C. […] Viability was analyzed using CellTiter-Glo® 2.0 Assay according to the manufacturer’s protocol (Promega). […] Cytotoxicity was analyzed using MultiTox-Glo Multiplex Cytotoxicity Assay according to the manufacturer’s protocol (Promega).

Baculovirus-Luc = settings: for EC50: read-out: EC50, inhibition of reporter gene expression
[3] = system: vaccinia virus wild-type (strain Western Reserve); settings: Figure 9B
[4] = system: RSV RNA (nucleocapsid protein gene); test: RSV RNA by real-time PCR; format: cell-based, Respiratory syncytial virus
Procedure: Lysates from infected cells were examined for the presence of RSV RNA by real-time PCR using ViroReal® RSV (RTGM20V; Ingenetix GmbH, Austria) detecting the nucleocapsid protein gene of RSV and normalized to GAPDH mRNA. Calculated EC50 was 0.8 µM for TAT-I24 with 80% inhibition at the highest concentration (20 µM). Ribavirin was included as control.

adenovirus type 5 = format: cell-based
Procedure: Luciferase from cell lysates was recorded 24 hours after infection. Results shown are luciferase levels expressed as % of control from duplicate wells. Luciferase was detected using Luciferase Assay System as described in Materials & Methods of the main article.

adenovirus 5 = format: cell-based
GAPDH mRNA, MRC-5 cells = test: GAPDH mRNA in cells of the HCMV replicon assay; settings: at the highest concentration of 20 μM; no effect below
HEK293 cells [5] = test: Morphology of HEK293 cells; format: cell-based
VZV transcripts = VZV transcripts by real-time PCR; format: cell-based, varicella zoster virus; settings: lysates of infected cells, normalized to GAPDH mRNA; Figure S8; read-out: EC50, reduction of VZV transcripts
Procedure: VZV transcripts were analysed from lysates of infected cells by real-time PCR using ViroReal® VZV (RTGM20V; Ingenetix GmbH, Austria) and normalized to GAPDH mRNA.

NIH/3T3 cells = test: Cytotoxicity, MultiTox-Glo Multiplex; format: cell-based; settings: 72 h; Figure 4B, triplicates
Procedure: as §1

HSV-1 UL30 gene = test: HSV-1 UL30 transcripts by real-time PCR; settings: cells from the replicon assay; Figures 8B, S6C
adenovirus 19a/64 = test: Replicon assay (AAV-GLuc-3B), A549 cells, adenovirus 19a/64; format: cell-based; settings: A549, MOI 1.0, at the concentrations used; Figures 3D, S3A
TZM-bl reporter cells = test: Reporter gene expression in non-infected TZM-bl cells; settings: 48 hours after treatment; Figure S7
RSV (strain A2) = test: RSV cytopathic effect; format: cell-based, Respiratory syncytial virus A; settings: human Hep2 cells, pre-treated, infected 2 hrs at 37°C, 3 days, microscopy
Procedure: Respiratory syncytial virus (RSV): Human Hep2 cells were pre-treated with peptides and infected with cell-free RSV Stock (strain A2) for 2 hrs at 37°C. Medium was then removed and unabsorbed virus removed by washing. Medium containing peptide dilutions was then added to cells.

HCMV TB40 = test: Replicon assay (AAV-GLuc-3B), MRC-5 cells, HCMV; format: cell-based, human cytomegalovirus; settings: MRC-5, 3 days; Figure 7A, TAT (48–60)
adenovirus 4 = test: Replicon assay (AAV-GLuc-3B), A549 cells, adenovirus 4; format: cell-based; settings: A549, MOI 1.0, at the concentrations used; Figures 3D, S3A
MCMV S-mCherry-SCP = MCMV S-mCherry-SCP replication, microscopy; format: cell-based, murine cytomegalovirus; settings: NIH/3T3, various concentrations, 72 h; Figure 4C
Procedure: For analysis of MCMV replication, NIH/3T3 cells were seeded at a density of 2 × 10^4 cells/well of ibiTreat eight-well chambers (ibidi, Germany). On the next day, cells were treated with peptides and infected with murine CMV S-mCherry-SCP ([Bosse et al., 2012]) at a MOI 0.2 for 72 h before fixation with 5% formaldehyde and staining of nuclei with DAPI. Microscopic examination was performed using a Live Cell Video Microscope (Leica Microsystems).

murine CMV (MCMV) = format: cell-based, murine cytomegalovirus; settings: NIH/3T3, MOI 0.5, 72 h; Figures 4A, S4A
Procedure: NIH/3T3 cells were seeded at a density of 2 × 10^4 cells/well of a 96-well plate and allowed to attach overnight. On the next day, medium was removed and replaced by medium containing peptide dilutions. Then, murine CMV (MCMV) expressing firefly luciferase ([Trilling et al., 2011]) was added to the cells at a MOI of 0.5 with aid of centrifugal enhancement at 800 × g for a total of 30 min.
Virus adsorption was performed by addition of MCMV expressing luciferase at a MOI of 0.5 with centrifugal enhancement at +4°C and further incubation at +4°C for 60 min before removal of unabsorbed virus and three times washing of cells with cold medium. […] After 72 h incubation at 37°C, luciferase levels were determined from cell lysates as described above.
In another setting, NIH/3T3 cells were preincubated with TAT-I24 at concentrations of 1 and 10 μM for 1, 3, and 6 h followed by removal of peptide and 3x washing with medium. […] After 72 h, luciferase levels were determined from cell lysates as described above.
A, NIH/3T3 cells were seeded at a density of 2 x 10^4 cells/well of a 96-well plate and treated on the next day with increasing concentrations of I24 or TAT-I24 and infected with MCMV (MOI = 0.5). After 72 hrs, luciferase was determined from cell lysates. Results shown are luciferase levels expressed as % of control from duplicate wells. […] Plaque formation was determined after 5 days. […]

influenza A PR8 = test: Influenza A plaque-formation assay; settings: MDCK cells, three days, at the concentrations used
[6] = system: firefly luciferase reporter gene under control of the CMV promoter, HEK293 cells; test: Luciferase expression from transfected CMV promoter plasmid (Superfect); format: cell-based; settings: HEK293, Figure 1D, TAT (47–57) alone
Procedure: Briefly, for one well of a 48-well plate, 100 ng DNA and 1 μl Superfect reagent were mixed by pipetting followed by addition of 12.5 μl of serum‐ and antibiotic-free medium. After brief vortexing and further incubation at room temperature for 15 min, 112.5 μl medium containing 10% fetal calf serum and antibiotics were added. For transfection in the presence of peptides, a transfection mixture of DNA, Superfect reagent, and serum-and antibiotic-free medium were prepared for the required number of wells. From this mixture, 25 μl aliquots were made and 0.5 μl peptides (10 mM each) added to each aliquot, vortexed briefly, and incubated for 15 min at room temperature. Then, 225 μl of medium containing 10% fetal calf serum was added and 125 μl applied per well of duplicate wells. For other types of multi-well plates, volumes were adapted according to the growth area of the wells.

## Nc1nc2c(ncn2COCCO)c(=O)[nH]1 [ACV, aciclovir]
[1]; HSV-1 isolate 703, Figure S6A
  sensitivity of isolate to aciclovir: resistance
Varicella zoster virus
  CPE: 4 µM

## CC(C)C[C@H](NC(=O)[C@@H](N)CS)C(=O)N[C@@H](C)C(=O)N[C@@H](Cc1ccccc1)C(=O)N[C@@H](Cc1ccc(O)cc1)C(=O)N[C@@H](C)C(=O)N[C@@H](CS)C(=O)N[C@@H](Cc1ccccc1)C(=O)N[C@@H](CS)C(=O)O [I24] (H-CLAFYACFC-OH)
HEK293 cells [2]
  effects on HEK293 cell viability: no effects

## CC(C)C[C@H](NC(=O)[C@H](CS)NC(=O)[C@H](Cc1ccc(O)cc1)NC(=O)[C@@H]1CCCN1C(=O)[C@H](CC(=O)O)NC(=O)[C@H](CCC(=O)O)NC(=O)[C@@H](NC(=O)[C@H](CCCCN)NC(=O)[C@H](CCCNC(=N)N)NC(=O)[C@H](CCCCN)NC(=O)[C@H](CCCCN)NC(=O)[C@H](CCCCN)NC(=O)[C@@H]1CCCN1)C(C)C)C(=O)N[C@@H](C)C(=O)N[C@@H](Cc1ccccc1)C(=O)N[C@@H](Cc1ccc(O)cc1)C(=O)N[C@@H](C)C(=O)N[C@@H](CS)C(=O)N[C@@H](Cc1ccccc1)C(=O)N[C@@H](CS)C(=O)O [SV40 NLS-I24] (H-PKKKRKVEDPYCLAFYACFC-OH)
Baculovirus-Luc; HEK293, Figure 2E, triplicate wells
  EC50: 1000 nM

## CC(C)C[C@H](NC(=O)[C@H](CS)NC(=O)[C@H](CCC(N)=O)NC(=O)[C@@H]1CCCN1C(=O)[C@@H]1CCCN1C(=O)[C@H](CCCNC(=N)N)NC(=O)[C@H](CCCNC(=N)N)NC(=O)[C@H](CCCNC(=N)N)NC(=O)[C@H](CCC(N)=O)NC(=O)[C@H](CCCNC(=N)N)NC(=O)[C@H](CCCNC(=N)N)NC(=O)[C@H](CCCCN)NC(=O)[C@H](CCCCN)NC(=O)[C@H](CCCNC(=N)N)NC(=O)CN)C(=O)N[C@@H](C)C(=O)N[C@@H](Cc1ccccc1)C(=O)N[C@@H](Cc1ccc(O)cc1)C(=O)N[C@@H](C)C(=O)N[C@@H](CS)C(=O)N[C@@H](Cc1ccccc1)C(=O)N[C@@H](CS)C(=O)O [TAT-I24] (H-GRKKRRQRRRPPQCLAFYACFC-OH)
[3]; read-out: EC50, inhibition of VACV wt replication, CV-1, MOI 0.2, 1 h preincubation, 24 h, TCID50, two independent experiments
  EC50: 790 nM
HEK293 cells [2]
  effects on HEK293 cell viability: no effects
[4]; at the highest concentration (20 µM)
  inhibition of RSV RNA: 80%
[4]; lysates from infected cells, normalized to GAPDH mRNA, Figure S9
  EC50: 800 nM
Adenovirus type 5; HEK293, adenovirus-GFP-Luc, 24 h, single value of Figure 3A (duplicate wells), read-out: EC50, inhibition of reporter gene expression
  EC50: 3140 nM
[1]; HSV1 601 (aciclovir-sensitive isolate)
  EC50: 370 nM
[1]; HSV1 703 (aciclovir-resistant isolate)
  EC50: 910 nM
[1]; HSV-1 F
  EC50: 1930 nM
Adenovirus 5; A549, MOI 1.0, Gaussia luciferase after 24 h, Figure 3D, triplicate wells, read-out: EC50, inhibition of replication
  EC50: 3250 nM
Baculovirus-Luc; HEK293, peptide added together with baculovirus, 24 h, Figure 2A
  inhibition of reporter gene expression: > 95%
Baculovirus-Luc; HEK293, MOI 5, peptide added together with baculovirus, 24 h, Figure 2A, duplicate wells
  EC50: 170 nM
GAPDH mRNA, MRC-5 cells
  GAPDH mRNA levels: some reduction
HEK293 cells [5]
  concentrations at which some morphological changes were observed: > 10 μM
CV-1 cells
  effect on mock infected CV-1 cells: No effect
CV-1 cells; at higher dosages (20 and 6.6 μM)
  effects on CV-1 cell attachment: some effects
VZV transcripts
  EC50: 3300 nM
NIH/3T3 cells
  cytotoxic effects (viable and dead cells): No cytotoxic effects

## GRKKRRQRRRPPQ [TAT, HIV-TAT peptide (48–60), …, cell penetrating peptide]
[3]; CV-1
  effect on VACV wt replication: no effect
HEK293 cells [2]
  effects on HEK293 cell viability: no effects
Adenovirus type 5; HEK293, 24 h, Figure 3A, TAT (48–60)
  effect on reporter gene expression: ineffective
HSV-1 UL30 gene
  UL30 transcript levels normalized to 18S rRNA: No effect; also recorded: does not affect
Adenovirus 19a/64
  effect on replication: no effect
Adenovirus 5; A549, Figure S3A
  effect on replication: no effect
TZM-bl reporter cells
  effect on reporter gene expression in the absence of virus: No inhibition
Varicella zoster virus
  CPE: no inhibition
RSV (strain A2)
  CPE: no inhibition
HCMV TB40
  effect on HCMV replication: no effect
Adenovirus 4
  effect on replication: no effect
MCMV S-mCherry-SCP
  cells producing virus particles: cells producing virus particles were seen
Murine CMV (MCMV)
  effect on luciferase expression: only partially decreased
Influenza A PR8
  Plaque assay: no inhibition
NIH/3T3 cells
  cytotoxic effects (viable and dead cells): No cytotoxic effects

## YGRKKRRQRRR [TAT (47–57), TAT peptide from Sigma, …]
Baculovirus-Luc; HEK293, 24 h, Figure 2A (TAT = TAT (47–57))
  effect on luciferase levels: did not affect
[6]
  effect on reporter gene expression: ineffective

## YGRKKRRQRRRC [TAT-C]
Baculovirus-Luc; HEK293, at the highest tested concentration of 20 μM, Figure 2E
  inhibition of luciferase expression: only partial inhibition
